Experimental data taken from EP4129284B1, “SERTACONAZOL FOR PROVIDING A SPORISTATIC AND/OR SPORICIDAL EFFECT” (Dr. Pfleger Arzneimittel GmbH, priority 2021, dated 2023).

Columns and labels:
Format in all cases: cell-based, human
full skin models = settings: for cell viability: human
Protocol: (§1) Additionally, the influence on the cell viability and the release of lactate dehydrogenase (LDH) was examined over the incubation time. Disruptions of the cell membranes can be measured by the release of the cytosolic enzyme LDH and be evaluated as a marker for cellular necrosis. As the biocompatibility of the material is determined by further cellular and molecular factors, the analysis of the cellular interleukin release allows the conclusion on e.g. pro-inflammatory effects of the substances, which would not be possible to be detected by sole cytotoxicity. Such interleukins are interleukins 1α, 6 or 8, which are involved in coordinating the cellular proliferation, cell migration and possible inflammatory processes. Such a method is described in, for example, Wiegand C, Hipler UC. Evaluation of biocompatibility and cytotoxicity using keratinocyte and fibroblast cultures. Skin Pharmacol Physiol 2009; 22:74-82; Wiegand C, Winter D, Hipler UC. Molecular-weight-dependent toxic effects of chitosans on the human keratinocyte cell line HaCaT. Skin Pharmacol Physiol. 2010;23(3):164-70.
(§2) The spore suspensions and the solutions of sertaconazol, ciclopiroxolamin and terbinafin were prepared as in Example 1, wherein the respective test concentrations were obtained by diluting these solutions in ultrapure water (WFI; Fresenius Kabi) instead of SGB (Merck). Full skin models were produced as previously described [Reddersen K, Wiegand C, Elsner P, Hipler UC. Three-dimensional human skin model infected with Staphylococcus aureus as a tool for evaluation of bioactivity and biocompatibility of antiseptics. Int J Antimicrob Agents. 2019; 54(3):283-291; Wiegand C, Fink S, Beier O, Horn K, Pfuch A, Schimanski A, Grünler B, Hipler UC, Elsner P. Dose- and Time-Dependent Cellular Effects of Cold Atmospheric Pressure Plasma Evaluated in 3D Skin Models. Skin Pharmacol Physiol. 2016;29(5):257-265].Particularly, normal human dermal fibroblasts (NHDF; Lot 1060702.1, Promocell) and normal human epidermal keratinocytes (NHEK; Lot 9100102, Promocell) were used. Fibroblasts were cultivated in Dulbecco's modified eagle medium (DMEM; Lot MC09049P, Amimed), with 2% foetal calf serum (Lot P160509; PAN), 5 ng/mL hFGF (Lot 0329586; novoprotein) and 5 µg/ml Insulin (Lot H07443P, AMIMED) at 37°C and a 5% CO2 atmosphere. Keratinocytes were cultivated in keratinocyte medium (KBM, Lot 446M063, Promocell) at 37°C and a 5% CO2 atmosphere. The cultivation was performed over 7 days in 75 cm^2 cell culture flasks (Greiner Bio-One). The cells were subsequently detached with Trypsin-EDTA (Lot 2091326; Gibco) and dissolved in the respective medium. For producing the dermis equivalent, fibroblasts were cultivated in 12-well inserts (Greiner bio-one) with DMEM (Lot MC09049P, Amimed) + 10% foetal calf serum (Lot P160509, PAN) + 1% Gentamycin (Lot 2027100, Gibco) + 150 µg/ml ascorbic acid (Lot BCBS1081V, Sigma) for 3 weeks at […] and 5 % CO2. The medium was changed all 2-3 days. Before seeding the keratinocytes for producing the […], the medium surrounding the insert was completely removed and the dermis upper layer was coated with fibronectin (50 µg/mL; Lot 435P078, Promocell). After 30 min of incubation of the dermis equivalent with fibronectin, the seeding of the keratinocytes was performed with 2 × 10^5 cells / insert in KBM (Lot 446M063, Promocell) + 5% FKS (Lot P160509, PAN) + 1% Gentamycin (Lot 2027100, Gibco). Subsequently, the skin models were incubated for 45 min in the incubator before the models were flooded with KBM + 5% FKS + 1% Gentamycin. The skin models were cultivated for 7 days by submersion in the medium with decreasing foetal calf serum concentration (5 %, 2 %, 0 %). The medium was changed all 2-3 days. After the cultivation by submersion, the skin models were further cultivated for 12 days at the air-medium interface (airlift cultivation). […]

IL-1α = test system: IL-1α
Protocol: as §1, §2

IL-8 = test system: IL-8
Protocol: as §1, §2

IL-6 = test system: IL-6
Protocol: as §1, §2

Row | SMILES | effect on the cell viability of the full skin models (full skin models) | secretion of LDH (full skin models) | cell viability (full skin models) [%] | secretion of IL-1α (IL-1α) | release of IL-8 (IL-8) | release of IL-6 (IL-6)
1 | Cc1cc(C2CCCCC2)n(O)c(=O)c1 [Ciclopiroxolamin, ciclopiroxolamin] | did not have a negative effect | no significant secretion | ≥ 70 | no significant secretion | – | –
2 | CN(C/C=C/C#CC(C)(C)C)Cc1cccc2ccccc12 [Terbinafin, terbinafin] | did not have a negative effect | no significant secretion | ≥ 70 | no significant secretion | – | –
3 | Clc1ccc(C(Cn2ccnc2)OCc2csc3c(Cl)cccc23)c(Cl)c1 (stereo not shown) [Sertaconazol, sertaconazol] | did not have a negative effect | no significant secretion | ≥ 70 | – | does not induce the release | does not induce the release
